What was measured:
Format in all cases: biochemical
FXa = FXa (Homo sapiens, UniProt P00742); experiment: Determination of selectivity: FXa inhibition, chromogenic substrate S2765 assay; details: fold selectivity for FXIIa over FXa
Method: (§1) The activities of the compounds of the invention have been determined in vitro using the following assays protocols for the screening of activity of FXIIa and other proteases. Each of these assays were performed in a purified system employing the use of chromogenic assays in microplate plate wells. Chromogenic peptide substrates mimicking natural protein substrates are attached via an amide bond to a chromogenic group. Paranitroaniline (pNA) is released from the peptide following catalyses by the proteolytic enzyme; the absorbance increases and can be monitored at 405 nm.
(§2) All compounds were dissolved in 100% (v/v) DMSO to a stock concentration of 10 mM, the highest concentration of compound used in each assay is 500 μM. The final concentrations of DMSO were 5% (v/v) in 50 mM Tris 137 mM NaC pH 7.4. Where no test compound was added a final concentration of 5% DMSO was employed.
(§3) Determination of Selectivity
(§4) To determine selectivity of test compounds, these test compounds were assayed for inhibitory activity against other serine proteases including FXa and thrombin. Essentially compounds at increasing concentrations were incubated with each enzyme: FXa (5 nM) and thrombin (5 nM), for 10 mins at 37° C. followed the appropriate chromogenic substrate, S2765 ([…]), and GPR ([…]) respectively in 50 mM Tris, 137 mM NaCl, pH 7.4. Chromogenic substrates S2765 was from Chromogenix, and GPR from Bachem. Kinetic readings at 405 nm were monitored every 12 secs for a total duration of 3 hours at 37° C. Gradients of initial rates were determined and employed to calculate IC50 values. Values of IC50 were converted to Ki values based on the formula: Ki=IC50/(1+[Substrate]/Km)
(§5) Where [Substrate] denotes the concentration of substrate used in the assay and Km is the determined value of each enzyme with its own substrate.
(§6) The fold selectivity for FXIIa over thrombin for the compounds of the invention has been categorised based on the fold selectivity values, the categories being “+”, “++” and “+++”. The category “+” refers to fold selectivity values less than 10. The category “++” refers to a fold selectivity value of 10 to 100. The category “+++” refers to fold selectivity values greater than 100.
The fold selectivity for FXIIa over FXa for the compounds of the invention has been categorised based on the fold selectivity values, the categories being “o”, “oo” and “ooo”. The category “o” refers to fold selectivity values less than 10. The category “oo” refers to a fold selectivity value of 10 to 100. The category “ooo” refers to fold selectivity values greater than 100.

FXIIa = biological target: T1, FXIIa (Homo sapiens, UniProt P00748); experiment: Determination of Factor XIIa inhibition, chromogenic substrate S-2302 assay; details: human FXIIa alpha
T1 sequence (P00748 373-615 limits assumed): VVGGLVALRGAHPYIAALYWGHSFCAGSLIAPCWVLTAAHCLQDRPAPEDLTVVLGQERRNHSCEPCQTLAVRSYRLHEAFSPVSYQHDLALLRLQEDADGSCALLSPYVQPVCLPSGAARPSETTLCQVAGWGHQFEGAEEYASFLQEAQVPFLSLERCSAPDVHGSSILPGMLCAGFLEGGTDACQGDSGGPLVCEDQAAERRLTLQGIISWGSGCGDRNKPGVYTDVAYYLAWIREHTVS
T1 sequence (P00748 20-372 partner limits assumed): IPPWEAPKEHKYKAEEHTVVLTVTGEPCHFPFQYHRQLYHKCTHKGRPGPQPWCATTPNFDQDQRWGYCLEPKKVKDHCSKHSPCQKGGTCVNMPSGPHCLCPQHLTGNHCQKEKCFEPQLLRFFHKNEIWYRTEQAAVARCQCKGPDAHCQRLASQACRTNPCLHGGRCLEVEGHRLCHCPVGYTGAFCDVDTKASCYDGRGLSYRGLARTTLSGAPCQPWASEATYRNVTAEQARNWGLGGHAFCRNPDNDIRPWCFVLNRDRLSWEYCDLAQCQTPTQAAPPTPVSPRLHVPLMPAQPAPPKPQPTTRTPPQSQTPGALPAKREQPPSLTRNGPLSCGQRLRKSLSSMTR
Method: as §1, §2
Determination of Factor XIa Inhibition
Factor XIa activity was measured using a chromogenic substrate S-2302 (Chromogenix). Various concentrations of compound were incubated with 10 nM of FXIIa and incubated at 37° C. for 10 minutes in 50 mM Tris, 137 mM NaCl, pH 7.4, prior to the addition of a final concentration of 450 µM S-2302 chromogenic substrate. Kinetic readings at 405 nm were monitored every 12 secs for a total duration of 3 hours at 37° C. Gradients of initial rates were determined and employed to calculate IC50 values. Values of IC50 were converted to Ki values based on the formula: Ki=IC50/(1+[Substrate]/Km).
The activity of the compounds of the invention has been categorised based on the Ki values, the categories being “*”, “**” and “***”. […] The category “**” refers to compounds with a Ki value of 0.2 μM to 2 μM.

thrombin = biological target: T2, thrombin (Homo sapiens, UniProt P00734); experiment: Determination of selectivity: thrombin inhibition, chromogenic substrate GPR assay; details: fold selectivity for FXIIa over thrombin
T2 construct: FXa (5 nM) and thrombin (5 nM)
Method: as §1, §2, §3, §4, §5, §6

Chain of FXa (P00742 235-488 limits assumed): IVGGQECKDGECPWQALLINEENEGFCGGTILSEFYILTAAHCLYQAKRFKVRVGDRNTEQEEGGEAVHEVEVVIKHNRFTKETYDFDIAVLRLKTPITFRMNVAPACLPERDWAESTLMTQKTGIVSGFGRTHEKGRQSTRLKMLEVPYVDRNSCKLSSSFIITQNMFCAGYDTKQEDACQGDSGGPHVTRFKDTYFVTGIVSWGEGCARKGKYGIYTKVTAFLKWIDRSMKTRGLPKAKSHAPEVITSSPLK
Chain of FXa (P00742 41-179 partner limits assumed): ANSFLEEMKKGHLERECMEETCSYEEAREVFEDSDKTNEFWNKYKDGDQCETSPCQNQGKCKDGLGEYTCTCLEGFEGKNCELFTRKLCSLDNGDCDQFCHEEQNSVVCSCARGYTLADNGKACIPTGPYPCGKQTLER

SMILES	FXa (human)/FXIIa alpha (human) (FXa)	Ki (FXIIa) [nM]	Thrombin (human)/FXIIa alpha (human) (thrombin)
Cc1ccc(C[C@@H]2C[C@@H](C(=O)NCc3ccc4c(c3)nnn4C)N(C(=O)[C@H]3C[C@@H](c4ccccc4)CN3)C2)cc1 [Example M05328]	∘∘∘	200 to 2000	++ (fold selectivity value of 10 to 100)
CNC(=O)N[C@H]1C[C@@H](C(=O)NCc2ccc3c(c2)nnn3C)N(C(=O)[C@H](N)CCc2ccccc2)C1 [Example M05208]	∘∘	> 2000	++ (fold selectivity value of 10 to 100)
Cn1nnc2cc(CNC(=O)[C@@H]3C[C@@H](Cc4ccc(F)c(F)c4)CN3C(=O)C3C[C@@H](c4ccccc4)CN3)ccc21 (stereo partly drawn) [Example M05325]	∘∘	> 2000	++ (fold selectivity value of 10 to 100)
COc1ccc(C[C@@H]2C[C@@H](C(=O)NCc3ccc4c(c3)nnn4C)N(C(=O)C3NCCc4cc(Br)ccc43)C2)cc1 (stereo partly drawn) [Example M05471]	∘∘	> 2000	++ (fold selectivity value of 10 to 100)
Cn1nnc2cc(CNC(=O)[C@@H]3C[C@H](Cc4cccc(F)c4)CN3C(=O)[C@H](N)CCC(=O)N3CCCC3)ccc21 [Example M05232]	∘∘∘	200 to 2000	+++ (fold selectivity values greater than 100)
COc1cc(CNC(=O)[C@@H]2C[C@H](C)CN2C(=O)[C@H](N)CCc2ccccc2)ccc1CN [Example M05073]	∘∘	200 to 2000	+ (fold selectivity values less than 10)
Cn1nnc2cc(CNC(=O)[C@@H]3C[C@@H](Cc4cccc(C(F)(F)F)c4)CN3C(=O)[C@H]3C[C@@H](c4ccccc4)CN3)ccc21 [Example M05356]	∘∘	> 2000	++ (fold selectivity value of 10 to 100)
Cn1nnc2cc(CNC(=O)[C@@H]3C[C@@H](Cc4ccc(OC(F)(F)F)cc4)CN3C(=O)[C@H]3C[C@@H](c4ccccc4)CN3)ccc21 [Example M05362]	∘∘	200 to 2000	++ (fold selectivity value of 10 to 100)
COc1ccc(C[C@@H]2C[C@@H](C(=O)NCc3ccc4c(c3)nnn4C)N(C(=O)[C@H]3CC(c4cnccn4)CN3)C2)cc1 (stereo partly drawn) [Example M05459]	∘∘∘	200 to 2000	+++ (fold selectivity values greater than 100)
Nc1cc(CNC(=O)[C@@H]2C[C@@](O)(c3ccccc3)CN2C(=O)[C@H](N)CCc2ccccc2)ccn1 [Example M05125]	∘∘	200 to 2000	++ (fold selectivity value of 10 to 100)
Cn1nnc2cc(CNC(=O)[C@@H]3CC(Cc4ccccc4Br)CN3C(=O)[C@H]3C[C@@H](c4ccccc4)CN3)ccc21 (stereo partly drawn) [Example M05329]	∘∘	> 2000	++ (fold selectivity value of 10 to 100)
COc1ccc(C[C@@H]2C[C@@H](C(=O)NCc3ccc4c(c3)nnn4C)N(C(=O)C3NCCc4cc(OC)ccc43)C2)cc1 (stereo partly drawn) [Example M05442]	∘∘∘	200 to 2000	+++ (fold selectivity values greater than 100)
COc1ccc(C[C@@H]2C[C@@H](C(=O)NCc3ccc4c(c3)nnn4C)N(C(=O)[C@H]3C[C@@H](Cc4ccccc4)CN3)C2)cc1 [Example M05383]	∘∘∘	200 to 2000	++ (fold selectivity value of 10 to 100)
Cc1ccc(C[C@@H]2C[C@@H](C(=O)NCc3cc4cnccc4[nH]3)N(C(=O)[C@H](N)CCC(=O)N3CCCC3)C2)cc1 [Example M00968]	∘∘∘	< 200	+++ (fold selectivity values greater than 100)
Cn1nnc2cc(CNC(=O)[C@@H]3C[C@@H](Cc4ccc(C(F)(F)F)cc4)CN3C(=O)[C@H](N)CCC(=O)N3CCCC3)ccc21 [Example M05336]	∘∘∘	< 200	+++ (fold selectivity values greater than 100)
Cc1ccccc1C[C@@H]1C[C@@H](C(=O)NCc2ccc3c(c2)nnn3C)N(C(=O)[C@H]2C[C@@H](c3ccccc3)CN2)C1 [Example M05360]	∘∘	200 to 2000	++ (fold selectivity value of 10 to 100)
NCc1ccc(CNC(=O)C2CCCN2C(=O)[C@H](N)CCc2cccc(CO)c2)cc1 (stereo partly drawn) [Example M00805]	∘∘	> 2000	+ (fold selectivity values less than 10)
COc1ccc(CC2C[C@@H](C(=O)NCc3ccc4c(c3)nnn4C)N(C(=O)[C@H](N)CCC(=O)N3CCCC3)C2)cc1Cl (stereo partly drawn) [Example M05298]	∘∘∘	< 200	+++ (fold selectivity values greater than 100)
Cn1nnc2cc(CNC(=O)[C@@H]3C[C@H](Cc4cccc(Cl)c4)CN3C(=O)[C@H](N)CCC(=O)N3CCCC3)ccc21 [Example M05210, (2S,4S)-1-((R)-2-amino-5-oxo-5-pyrrolidin-1-yl-pentanoyl)-4-(3-chloro-benzyl)-pyrrolidine-2-carboxylic acid (1-methyl-1H-benzotriazol-5-ylmethyl)-amide]	∘∘∘	200 to 2000	+++ (fold selectivity values greater than 100)
COc1ccc(C[C@@H]2C[C@@H](C(=O)NCc3ccc4c(c3)nnn4C)N(C(=O)[C@H](N)CCC(=O)N3C4CCC3C(=O)NC4)C2)cc1 (stereo partly drawn) [Example M05460]	∘∘∘	200 to 2000	+++ (fold selectivity values greater than 100)
Cn1nnc2cc(CNC(=O)[C@@H]3C[C@@H](Cc4cccc5c4CCO5)CN3C(=O)[C@H]3C[C@@H](c4ccccc4)CN3)ccc21 [Example M05371]	∘∘	> 2000	++ (fold selectivity value of 10 to 100)
Cc1cccc(CC[C@@H](N)C(=O)N2CCC[C@H]2C(=O)NCc2ccc(CN)cc2)c1 [Example M00762]	∘∘	> 2000	+ (fold selectivity values less than 10)
Cn1nnc2cc(CNC(=O)[C@@H]3C[C@@H](Cc4ccccc4C#N)CN3C(=O)[C@H]3C[C@@H](c4ccccc4)CN3)ccc21 [Example M05337]	∘∘	> 2000	++ (fold selectivity value of 10 to 100)

From patent US12336991B2, “Factor XIIA inhibitors” (UNIVERSITY OF LEEDS, priority 2018, dated 2025)
